Results reported in US20210251991A1, “SUBSTITUTED 2,2'-BIPYRIMIDINYL COMPOUNDS, ANALOGUES THEREOF, AND METHODS USING SAME” (priority 2018, published 2021).

system: HBsAg in HepG2.2.15 cells; experiment: HBsAg assay: inhibition of HBsAg in HepG2.2.15 cells (chemiluminescence immunoassay of supernatant); assay type: cell-based, hepatitis B virus; details: Hepatitis B virus, HepG2.2.15, 144 h, read-out: sAg EC50, HepG2.2.15 cells, supernatant collected at day 6 after exposure, HBsAg CLIA
In short: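 HepG2.2.15 cells treated with serially diluted compounds (0.5% DMSO), medium and compound refreshed after 2-3 days; supernatant HBsAg measured by chemiluminescence immunoassay at day 6. EC50 from dose-response curves; viability assessed in parallel by CellTiter-Glo.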

| SMILES | EC50 [nM] |
| --- | --- |
| CCC1c2cc(OC)c(OC)cc2CN1c1nc(-c2ncccn2)ncc1C (stereo not drawn) [Example 58, 1-Ethyl-5,6-dimethoxy-2-(5-methyl-[2,2′-bipyrimidin]-4-yl)isoindoline] | 2 |
| CCC1c2cc(OC)c(OC)cc2CN1c1ccnc(-c2ncccn2)n1 (stereo not drawn) [Example 55, 2-([2,2′-Bipyrimidin]-4-yl)-1-ethyl-5,6-dimethoxyisoindoline] | 24 |
| CCC1c2cc(OC)c(OC)cc2CN1c1nc(-c2ncccn2)nc2scnc12 (stereo not drawn) [Example 93, 7-(1-Ethyl-5,6-dimethoxy-isoindolin-2-yl)-5-pyrimidin-2-yl-thiazolo[5,4-d]pyrimidine] | 200 |
| Cc1cnc(-c2ncccn2)nc1N1C2CCC1c1ccccc12 [Example 85, 9-(5-Methyl-[2,2′-bipyrimidin]-4-yl)-1,2,3,4-tetrahydro-1,4-epiminonaphthalene] | 3000 |
| CCC1c2cc(OC)c(OC)cc2CN1c1nc(-c2ncccn2)ncc1Cl (stereo not drawn) [Example 60, 2-(5-Chloro-[2,2′-bipyrimidin]-4-yl)-1-ethyl-5,6-dimethoxyisoindoline] | 3 |
| CCC1c2ccccc2CCN1c1cnc2c(ccc3cccnc32)c1 (stereo not drawn) [Example 122, 3-(1-Ethyl-3,4-dihydroisoquinolin-2(1H)-yl)-1,10-phenanthroline] | 1200 |
| CCC1c2cc(F)c(F)cc2CN1c1ccnc(C(=O)O)n1 (stereo not drawn) [Example 95, 4-(1-Ethyl-5,6-difluoroisoindolin-2-yl)pyrimidine-2-carboxylic Acid] | 2000 |
| CCC1c2cc(F)c(F)cc2CN1c1nc(-c2ncccn2)ncc1Cl (stereo not drawn) [Example 53, 2-(5-Chloro-[2,2′-bipyrimidin]-4-yl)-1-ethyl-5,6-difluoroisoindoline] | 30 |
| COc1cc2c(cc1OC)C1(CCC1)N(c1cnc(-c3ncccn3)nc1)CC2 [Example 18, 2′-([2,2′-Bipyrimidin]-5-yl)-6′,7′-dimethoxy-3′,4′-dihydro-2′H-spiro[cyclobutane-1,1′-isoquinoline]] | 50000 |
| CCC1c2cc(F)c(F)cc2CN1c1cnc(C(N)=O)nc1 (stereo not drawn) [Example 119, 5-(1-Ethyl-5,6-difluoroisoindolin-2-yl)pyrimidine-2-carboxamide] | 42000 |
| CCC1c2cc(F)c(F)cc2CN1c1nc(-c2ncccn2)ncc1C (stereo not drawn) [Example 52, 1-Ethyl-5,6-difluoro-2-(5-methyl-[2,2′-bipyrimidin]-4-yl)isoindoline] | 43 |
| CCCC1c2ccccc2CCN1c1ccnc(-c2ncccn2)n1 (stereo not drawn) [Example 23, 2-([2,2′-Bipyrimidin]-4-yl)-1-propyl-1,2,3,4-tetrahydroisoquinoline] | 1000 |

same assay, conditions: read-out: sAg EC50; HepG2.2.15 cells, supernatant collected at day 6 after exposure, HBsAg CLIA

| SMILES | EC50 [nM] |
| --- | --- |
| CCC1c2cc(F)c(OC)cc2CN1c1cnc(-c2ncccn2)nc1 (single isomer, unassigned) [Example 89, 2-([2,2′-Bipyrimidin]-5-yl)-1-ethyl-6-fluoro-5-methoxyisoindoline] | 8 |
| CCC1c2cc(OC)c(OC)cc2CN1c1ccnc(-c2ncccn2)n1 (single isomer, unassigned) [Example 57, 2-([2,2′-Bipyrimidin]-4-yl)-1-ethyl-5,6-dimethoxyisoindoline] | 76 |
| CCC1c2cc(F)c(OC)cc2CN1c1cnc(C(=O)NS(C)(=O)=O)nc1 (single isomer, unassigned) [Example 103, 5-(1-Ethyl-6-fluoro-5-methoxyisoindolin-2-yl)-N-(methylsulfonyl)pyrimidine-2-carboxamide] | 600 |
| CCC1c2cc(F)c(OC)cc2CN1c1ccnc(C(=O)NC)n1 (single isomer, unassigned) [Example 110, 4-(1-Ethyl-6-fluoro-5-methoxyisoindolin-2-yl)-N-methylpyrimidine-2-carboxamide] | 3000 |
| CCC1c2ccc(F)c(F)c2CCN1c1cnc(-c2ncccn2)nc1 (single isomer, unassigned) [Example 33, 1-Ethyl-5,6-difluoro-2-(2-pyrimidin-2-ylpyrimidin-5-yl)-3,4-dihydro-1H-isoquinoline] | 390 |
| CCC1c2cc(F)c(OC)cc2CN1c1nc(-c2ncccn2)ncc1C (single isomer, unassigned) [Example 68, 1-Ethyl-6-fluoro-5-methoxy-2-(5-methyl-[2,2′-bipyrimidin]-4-yl)isoindoline] | 2 |
